Laboratory results taken from patent EP4745135A1 (Gluetacs Therapeutics (Shanghai) Co., Ltd., priority 2023, dated 2025).

Molecular target: T1, human Cereblon WT GST-tagged protein (Homo sapiens, UniProt Q96SW2)
T1 construct: purchased CISBIO 64BDCRBNPEH
Assay: CRBN-binding affinity, HTRF (CEREBLON BINDING kit)
Conditions: for inhibition at 0.5 µM: read-out: Inhibition Rate at 0.5 µM (%); for inhibition at 2 µM: read-out: Inhibition Rate at 2 µM (%); for IC50: CRBN binding, HTRF, 3 hours at room temperature, read-out: HTRF IC50
Method: The CEREBLON BINDING kits (specification: 10,000 tests; product number: Catalog # 64BDCRBNPEH; CISBIO company) was used to determine the CRBN binding ability of the compounds to be tested through a HTRF method (homogeneous time-resolved fluorescence). The specific methods are as follows: • 1. […] Specifically, diluent #9 (1X) solution was used as the diluent, and multiple concentration gradients were set. […] Then, 2.5 µL of human Cereblon WT GST-tagged protein solution was added to each well. Finally, 5 µL of the thoroughly mixed Thalidomide-Re reagent and GST Eu antibody working solution were added to each of the aforementioned wells. […] The blank control wells were sequentially added with 2.5 µL of diluent #9 (1X) solution, 2.5 µL of PROTAC binding buffer, and 5 µL of thoroughly mixed Thalidomide-Re reagent and GST Eu antibody working solution. • 4.

T1 sequence (Q96SW2 whole entry): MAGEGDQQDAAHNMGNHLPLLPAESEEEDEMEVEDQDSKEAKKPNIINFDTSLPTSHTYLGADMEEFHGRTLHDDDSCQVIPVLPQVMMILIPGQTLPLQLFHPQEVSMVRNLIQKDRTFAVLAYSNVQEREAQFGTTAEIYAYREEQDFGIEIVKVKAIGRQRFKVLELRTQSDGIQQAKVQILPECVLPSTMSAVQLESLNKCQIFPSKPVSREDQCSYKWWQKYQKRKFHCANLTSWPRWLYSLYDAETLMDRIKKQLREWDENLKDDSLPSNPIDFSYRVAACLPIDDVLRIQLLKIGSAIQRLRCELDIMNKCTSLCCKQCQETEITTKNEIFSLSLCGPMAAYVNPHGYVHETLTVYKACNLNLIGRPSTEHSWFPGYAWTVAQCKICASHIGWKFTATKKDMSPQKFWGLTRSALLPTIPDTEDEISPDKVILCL

Question: Which results are given for O=C1CCC(N2Cc3cc(CN4CCC(N5CCOc6cc(F)ccc65)CC4)ccc3C2=S)C(=O)N1 (stereo not drawn) [GT-09272, 3-(5-((4-(7-fluoro-2,3-dihydro-4H-benzo[b][1,4]oxazin-4-yl)piperidin-1-yl)methyl)-1-thioxoisoindolin-2-yl)piperidine-2,6-dione]?
Answer: inhibition at 0.5 µM: 60 to 80%; inhibition at 2 µM: 80 to 100%

Question: What does the source list for CC(C)c1cc2c(N3CCN(Cc4ccc5c(c4)CN(C4CCC(=O)NC4=O)C5=S)CC3)ncnc2s1 (stereo not drawn) [GT-09284, 3-(5-((4-(6-isopropylthieno[2,3-d]pyrimidin-4-yl)piperazin-1-yl)methyl)-1-thioxoisoindolin-2-yl)piperidine-2,6-dione]?
Answer: inhibition at 0.5 µM: 40 to 53%; inhibition at 2 µM: 80 to 100%

Question: With O=C1CCC(N2Cc3cc(CN4CCC(c5ccon5)CC4)ccc3C2=S)C(=O)N1 (stereo not drawn) [GT-09256, 3-(5-((4-(isoxazol-3-yl)piperidin-1-yl)methyl)-1-thioxoisoindolin-2-yl)piperidine-2,6-dione] as the compound, how does the inhibition at 0.5 µM read?
Answer: 60 to 80%

Question: What about the inhibition at 2 µM of the same compound?
Answer: 80 to 100%

Question: What does the source list for O=C1CCC(N2Cc3cc(CN4CCN(c5ccncc5Br)CC4)ccc3C2=S)C(=O)N1 (stereo not drawn) [GT-09236, 3-(5-((4-(3-bromopyridin-4-yl)piperazin-1-yl)methyl)-1-thioxoisoindolin-2-yl)piperidine-2,6-dione]?
Answer: inhibition at 0.5 µM: 60 to 80%; inhibition at 2 µM: 80 to 100%

Question: O=C1CCC(N2Cc3cc(CN4CCC(c5ncnc6sccc56)CC4)ccc3C2=S)C(=O)N1 (stereo not drawn) [GT-09304, 3-(5-((4-(thieno[2,3-d]pyrimidin-4-yl)piperidin-1-yl)methyl)-1-thioxoisoindolin-2-yl)piperidine-2,6-dione] was tested. Which inhibition at 0.5 µM did it give?
Answer: 60 to 80%

Question: And the inhibition at 2 µM?
Answer: 80 to 100%

Question: Which results are given for O=C1CCC(N2Cc3cc(CN4CCN(c5ncnc6sc(Br)cc56)CC4)ccc3C2=S)C(=O)N1 (stereo not drawn) [GT-09295, 3-(5-((4-(6-bromothieno[2,3-d]pyrimidin-4-yl)piperazin-1-yl)methyl)-1-thioxoisoindolin-2-yl)piperidine-2,6-dione]?
Answer: inhibition at 0.5 µM: 80 to 100%; inhibition at 2 µM: 80 to 100%

Question: What does the source list for O=C1CCC(N2Cc3cc(CN4CCN(c5c(Cl)cncc5Cl)CC4)ccc3C2=S)C(=O)N1 (stereo not drawn) [GT-09246, 3-(5-((4-(3,5-dichloropyridin-4-yl)piperazin-1-yl)methyl)-1-thioxoisoindolin-2-yl)piperidine-2,6-dione]?
Answer: inhibition at 0.5 µM: 80 to 100%; inhibition at 2 µM: 80 to 100%

Question: How did the IC50 turn out when O=C1CCC(N2Cc3ccc(CN4CCc5sccc5C4)cc3C2=S)C(=O)N1 (stereo not drawn) [GT-05039, 3-(6-((6,7-dihydrothieno[3,2-c]pyridin-5(4H)-yl)methyl)-1-thioxoisoindolin-2-yl)piperidine-2,6-dione] was run?
Answer: 100 to 500 nM

Question: O=C1CCC(N2Cc3cc(CN4CCN(c5ncnc6sccc56)CC4)ccc3C2=S)C(=O)N1 (stereo not drawn) [GT-09280, 3-(5-((4-(thieno[2,3-d]pyrimidin-4-yl)piperazin-1-yl)methyl)-1-thioxoisoindolin-2-yl)piperidine-2,6-dione] was tested. Which inhibition at 0.5 µM did it give?
Answer: 80 to 100%

Question: And the inhibition at 2 µM?
Answer: 80 to 100%

Question: How did the IC50 turn out when O=C1CCC(N2Cc3cc(CN4CCc5sccc5C4)ccc3C2=S)C(=O)N1 (stereo not drawn) [GT-05093, 3-(5-((6,7-dihydrothieno[3,2-c]pyridin-5(4H)-yl)methyl)-1-thioxoisoindolin-2-yl)piperidine-2,6-dione] was run?
Answer: < 100 nM

Question: How did the inhibition at 0.5 µM turn out when O=C1CCC(N2Cc3c(CN4CCC(N(c5ccccc5)c5ccccn5)CC4)cccc3C2=S)C(=O)N1 (stereo not drawn) [GT-08243, 3-(4-((4-(phenyl(pyridin-2-yl)amino)piperidin-1-yl)methyl)-1-thioxoisoindolin-2-yl)piperidine-2,6-dione] was run?
Answer: 20 to 30%

Question: And the inhibition at 2 µM?
Answer: 60 to 80%

Question: What does the source list for O=C1CCC(N2Cc3cc(CN4CCN(c5ccnc(Cl)c5Cl)CC4)ccc3C2=S)C(=O)N1 (stereo not drawn) [GT-09354, 3-(5-((4-(2,3-dichloropyridin-4-yl)piperazin-1-yl)methyl)-1-thioxoisoindolin-2-yl)piperidine-2,6-dione]?
Answer: inhibition at 0.5 µM: 60 to 80%; inhibition at 2 µM: 80 to 100%

Question: Which results are given for O=C1CCC(N2Cc3c(CN4CCN(c5nc6c(c(N7CCOCC7)n5)SCC6)CC4)cccc3C2=S)C(=O)N1 (stereo not drawn) [GT-08969, 3-(4-((4-(4-morpholino-6,7-dihydrothieno[3,2-d]pyrimidin-2-yl)piperazin-1-yl)methyl)-1-thioxoisoindolin-2-yl)piperidine-2,6-dione]?
Answer: inhibition at 0.5 µM: 60 to 80%; inhibition at 2 µM: 80 to 100%

Question: Which inhibition at 0.5 µM does the source give for Cc1sc2ncnc(N3CCCN(Cc4ccc5c(c4)CN(C4CCC(=O)NC4=O)C5=S)CC3)c2c1C (stereo not drawn) [GT-09287, 3-(5-((4-(5,6-dimethylthieno[2,3-d]pyrimidin-4-yl)-1,4-diazepan-1-yl)methyl)-1-thioxoisoindolin-2-yl)piperidine-2,6-dione] here?
Answer: 80 to 100%

Question: What about the inhibition at 2 µM of the same compound?
Answer: 80 to 100%

Question: How did the IC50 turn out when O=C1CCC(N2Cc3cc(CN4CCN(c5nsc6ccccc56)CC4)ccc3C2=S)C(=O)N1 (stereo not drawn) [GT-05091, 3-(5-((4-(benzo[d]isothiazol-3-yl)piperazin-1-yl)methyl)-1-thioxoisoindolin-2-yl)piperidine-2,6-dione] was run?
Answer: < 100 nM

Question: Which results are given for O=C1CCC(N2Cc3cc(CN4CCN(c5ncncn5)CC4)ccc3C2=S)C(=O)N1 (stereo not drawn) [GT-09249, 3-(5-((4-(1,3,5-triazin-2-yl)piperazin-1-yl)methyl)-1-thioxoisoindolin-2-yl)piperidine-2,6-dione]?
Answer: inhibition at 0.5 µM: 60 to 80%; inhibition at 2 µM: 80 to 100%

Question: Which inhibition at 0.5 µM does the source give for O=C1CCC(N2Cc3cc(CN4CCN(c5ccnc(Cl)c5F)CC4)ccc3C2=S)C(=O)N1 (stereo not drawn) [GT-09239, 3-(5-((4-(2-chloro-3-fluoropyridin-4-yl)piperazin-1-yl)methyl)-1-thioxoisoindolin-2-yl)piperidine-2,6-dione] here?
Answer: 60 to 80%

Question: What about the inhibition at 2 µM of the same compound?
Answer: 80 to 100%

Question: How did the inhibition at 0.5 µM turn out when O=C1CCC(N2Cc3cc(CN4CCC(N5C(=O)COc6cc(F)ccc65)CC4)ccc3C2=S)C(=O)N1 (stereo not drawn) [GT-09273, 3-(5-((4-(7-fluoro-3-oxo-2,3-dihydro-4H-benzo[b][1,4]oxazin-4-yl)piperidin-1-yl)methyl)-1-thioxoisoindolin-2-yl)piperidine-2,6-dione] was run?
Answer: 60 to 80%

Question: And the inhibition at 2 µM?
Answer: 80 to 100%

Question: What does the source list for O=C1CCC(N2Cc3c(CN4CCN(c5cccc(Br)c5)CC4)cccc3C2=S)C(=O)N1 (stereo not drawn) [GT-08261, 3-(4-((4-(3-bromophenyl)piperazin-1-yl)methyl)-1-thioxoisoindolin-2-yl)piperidine-2,6-dione]?
Answer: inhibition at 0.5 µM: 30 to 40%; inhibition at 2 µM: 60 to 80%

Question: Which results are given for O=C1CCC(N2Cc3cc(CN4CCN(c5ccc(Cl)nn5)CC4)ccc3C2=S)C(=O)N1 (stereo not drawn) [GT-09251, 3-(5-((4-(6-chloropyridazin-3-yl)piperazin-1-yl)methyl)-1-thioxoisoindolin-2-yl)piperidine-2,6-dione]?
Answer: inhibition at 0.5 µM: 60 to 80%; inhibition at 2 µM: 80 to 100%

Question: Which inhibition at 0.5 µM does the source give for O=C1CCC(N2Cc3cc(CN4CCC(c5cccc6cnccc56)CC4)ccc3C2=S)C(=O)N1 (stereo not drawn) [GT-09277, 3-(5-((4-(isoquinolin-5-yl)piperidin-1-yl)methyl)-1-thioxoisoindolin-2-yl)piperidine-2,6-dione] here?
Answer: 40 to 53%

Question: And the inhibition at 2 µM?
Answer: 80 to 100%

Question: How did the inhibition at 0.5 µM turn out when O=C1CCC(N2Cc3cc(CN4CCN(c5c(F)cncc5Cl)CC4)ccc3C2=S)C(=O)N1 (stereo not drawn) [GT-09243, 3-(5-((4-(3-chloro-5-fluoropyridin-4-yl)piperazin-1-yl)methyl)-1-thioxoisoindolin-2-yl)piperidine-2,6-dione] was run?
Answer: 60 to 80%

Question: And the inhibition at 2 µM?
Answer: 80 to 100%

Question: With O=C1CCC(N2Cc3cc(CN4CCN(c5ncc6ccsc6n5)CC4)ccc3C2=S)C(=O)N1 (stereo not drawn) [GT-09303, 3-(5-((4-(thieno[2,3-d]pyrimidin-2-yl)piperazin-1-yl)methyl)-1-thioxoisoindolin-2-yl)piperidine-2,6-dione] as the compound, how does the inhibition at 0.5 µM read?
Answer: 60 to 80%

Question: What about the inhibition at 2 µM of the same compound?
Answer: 80 to 100%

Question: Which IC50 does the source give for O=C1CCC(N2Cc3ccc(CN4CCN(c5nsc6ccccc56)CC4)cc3C2=S)C(=O)N1 (stereo not drawn) [GT-05040, 3-(6-((4-(benzo[d]isothiazol-3-yl)piperazin-1-yl)methyl)-1-thioxoisoindolin-2-yl)piperidine-2,6-dione] here?
Answer: 100 to 500 nM

Question: Which inhibition at 0.5 µM does the source give for O=C1CCC(N2Cc3cc(CN4CCN(c5cnnc(Cl)c5Cl)CC4)ccc3C2=S)C(=O)N1 (stereo not drawn) [GT-09255, 3-(5-((4-(5,6-dichloropyridazin-4-yl)piperazin-1-yl)methyl)-1-thioxoisoindolin-2-yl)piperidine-2,6-dione] here?
Answer: 80 to 100%

Question: What about the inhibition at 2 µM of the same compound?
Answer: 80 to 100%

Question: For O=C1CCC(N2Cc3cc(CN4CCN(c5noc6ccncc56)CC4)ccc3C2=S)C(=O)N1 (stereo not drawn) [GT-09258, 3-(5-((4-(isoxazolo[4,5-c]pyridin-3-yl)piperazin-1-yl)methyl)-1-thioxoisoindolin-2-yl)piperidine-2,6-dione], which inhibition at 0.5 µM is on record?
Answer: 60 to 80%

Question: And the inhibition at 2 µM?
Answer: 80 to 100%

Question: What does the source list for O=C1CCC(N2Cc3cc(CN4CC(c5ccnc6cc(F)ccc56)C4)ccc3C2=S)C(=O)N1 (stereo not drawn) [GT-09279, 3-(5-((3-(7-fluoroquinolin-4-yl)azetidin-1-yl)methyl)-1-thioxoisoindolin-2-yl)piperidine-2,6-dione]?
Answer: inhibition at 0.5 µM: 60 to 80%; inhibition at 2 µM: 80 to 100%

Question: With O=C1CCC(N2Cc3c(CN4CCN(c5ncccc5C(F)(F)F)CC4)cccc3C2=S)C(=O)N1 (stereo not drawn) [GT-08700, 3-(1-thioxo-4-((4-(3-(trifluoromethyl)pyridin-2-yl)piperazin-1-yl)methyl)isoindolin-2-yl)piperidine-2,6-dione] as the compound, how does the inhibition at 0.5 µM read?
Answer: 53 to 60%

Question: And the inhibition at 2 µM?
Answer: 80 to 100%

Question: Which inhibition at 0.5 µM does the source give for O=C1CCC(N2Cc3cc(CN4CC5CCC(C4)N5C(c4ccccc4)c4ccccc4)ccc3C2=S)C(=O)N1 (stereo not drawn) [GT-07849, 3-(5-((8-benzhydryl-3,8-diazabicyclo[3.2.1]octan-3-yl)methyl)-1-thioxoisoindolin-2-yl)piperidine-2,6-dione] here?
Answer: 30 to 40%

Question: And the inhibition at 2 µM?
Answer: 60 to 80%
